The structures appear in SMILES notation.

Holding throughout (type): in vivo
In one experiment the test system is normotensive dogs. The experiment in a line: IOP in normotensive dogs. The settings on record: versus baseline.
Experiment [1] deals with laser-induced hypertensive monkeys. The experiment in a line: IOP in laser-induced hypertensive monkeys. Conditions: versus baseline.
The test system of experiment [2] is lashes and adjacent hairs of the eyelids. The experiment in a line: Lash and adjacent hair changes in glaucoma patients treated in one eye. The settings on record: glaucoma patient treated in only one eye. An excerpt: In the course of treating patients having glaucoma, treatment may only be appropriate in one eye. […] The lash appearance on the lids of the treated eyes would have appeared quite attractive if it represented a bilateral phenomenon. As a result of its asymmetric nature, the long lashes on one side could be construed as disturbing from a cosmetic standpoint. A systemic examination was preformed as a result of the asymmetric phenomenon. It soon became apparent that this altered appearance was not an isolated finding. […] Definite differences could be identified to varying degrees in the lashes and adjacent hairs of all patients who were taking the drug on a unilateral basis for longer than 6 months.
The changes in the lashes were apparent on gross inspection in several patients once attention was focused on the issue. In those with light colored hair and lashes, the differences were only seen easily with the aid of the high magnification and lighting capabilities of the slit lamp biomicroscope. In the course of glaucoma follow-up examination, attention is generally immediately focused on the eye itself. As a result of the high power magnification needed only one eye is seen at a time and the eye is seen at a high enough power that the lashes are not in focus. […]

On to `CCC1(C(O)CCC[C@@H]2[C@@H](CCCCCCC(=O)OCCO)[C@H](C#N)C[C@H]2O)CCC1` (stereo partly drawn) [Compound III], for which, in the experiment with normotensive dogs, the “intraocular pressure (IOP)” value is listed as “decreases from baseline”. The IOP result in experiment [1] is on record as “decreases from baseline”.
With `N#C[C@@H]1C[C@@H](O)[C@H](/C=C/CC(O)C2(c3cccs3)CCC2)[C@H]1C/C=C\CCCC(=O)OCCO` (stereo partly drawn) [Compound II], in the experiment on normotensive dogs, the “intraocular pressure (IOP)” value is recorded as “decreases from baseline”. Further, in experiment [1], the IOP result was “decreases from baseline”.
As for `N#C[C@@H]1C[C@@H](O)[C@H](/C=C/CC(O)C2(c3cccs3)CCC2)[C@H]1CCCCCCC(=O)OCCO` (stereo partly drawn) [Compound IV], the “intraocular pressure (IOP)” value in the experiment with normotensive dogs is “decreases from baseline”. In addition, the IOP result in experiment [1] is on record as “decreases from baseline”.
For `CCC1(C(O)C/C=C/[C@@H]2[C@@H](C/C=C\CCCC(=O)OCCN3CCOCC3)[C@H](C#N)C[C@H]2O)CCC1` (stereo partly drawn) [Compound IX], the “intraocular pressure (IOP)” value with normotensive dogs is “decreases from baseline”. In experiment [1], the IOP result is given as “decreases from baseline”.
`CCC1(C(O)C/C=C/[C@@H]2[C@@H](C/C=C\CCCC(=O)OCCO)[C@H](C#N)C[C@H]2O)CCC1` (stereo partly drawn) [Compound I]: in the experiment with normotensive dogs, the “intraocular pressure (IOP)” value was “decreases from baseline”. Also, in experiment [1], the IOP result is “decreases from baseline”.
With `N#C[C@@H]1C[C@@H](O)[C@H](CCCC(O)C2(c3cccs3)CCC2)[C@H]1CCCCCCC(=O)OCCO` (stereo partly drawn) [Compound VIII], the “intraocular pressure (IOP)” value with normotensive dogs is “decreases from baseline”. The IOP entry in experiment [1] is recorded as “decreases from baseline”.
As for `CCC1(C(O)C/C=C/[C@@H]2[C@@H](CCCc3ccc(C(=O)OCCO)s3)[C@H](C#N)C[C@H]2O)CCC1` (stereo partly drawn) [Compound VII], the “intraocular pressure (IOP)” value in the experiment on normotensive dogs is “decreases from baseline”. In experiment [1], the IOP result was “decreases from baseline”.
On to `CCC1(C(O)CCC[C@@H]2[C@@H](CCCc3ccc(C(=O)OCCO)s3)[C@H](C#N)C[C@H]2O)CCC1` (stereo partly drawn) [Compound VI], for which the “intraocular pressure (IOP)” value in the experiment with normotensive dogs was “decreases from baseline”. In addition, the IOP entry in experiment [1] is “decreases from baseline”.
For `N#C[C@@H]1C[C@@H](O)[C@H](/C=C/CC(O)C2(Cc3ccc(Cl)s3)CCC2)[C@H]1C/C=C\CCCC(=O)OCCO` (stereo partly drawn) [Compound V], the “intraocular pressure (IOP)” value in the experiment on normotensive dogs is “decreases from baseline”. In experiment [1], the IOP entry is on record as “decreases from baseline”.
Regarding `N#C[C@@H]1C[C@@H](O)[C@H](/C=C/CC(O)C2(Cc3ccc(Cl)s3)CCC2)[C@H]1C/C=C\CCCC(=O)OCCN1CCOCC1` (stereo partly drawn) [Compound XIII], the “intraocular pressure (IOP)” value in the experiment with normotensive dogs was “decreases from baseline”. In experiment [1], the IOP entry is given as “decreases from baseline”.
Regarding `N#C[C@@H]1C[C@@H](O)[C@H](/C=C/CC(O)C2(c3cccs3)CCC2)[C@H]1CCCCCCC(=O)OCCN1CCOCC1` (stereo partly drawn) [Compound XII], the “intraocular pressure (IOP)” value in the experiment on normotensive dogs was “decreases from baseline”. Moreover, the IOP result in experiment [1] is “decreases from baseline”.
On to `CCC1(C(O)CCC[C@@H]2[C@@H](CCCc3ccc(C(=O)OCCN4CCOCC4)s3)[C@H](C#N)C[C@H]2O)CCC1` (stereo partly drawn) [Compound XIV], for which the “intraocular pressure (IOP)” value in the experiment on normotensive dogs is on record as “decreases from baseline”. For the same compound, the IOP entry in experiment [1] is reported as “decreases from baseline”.
Take `CCC1(C(O)CCC[C@@H]2[C@@H](CCCCCCC(=O)OCCN3CCOCC3)[C@H](C#N)C[C@H]2O)CCC1` (stereo partly drawn) [Compound XI]: in the experiment on normotensive dogs, the “intraocular pressure (IOP)” value is “decreases from baseline”. The IOP entry in experiment [1] is “decreases from baseline”.
Consider `CCC1(C(O)C/C=C/[C@@H]2[C@@H](CCCc3ccc(C(=O)OCCN4CCOCC4)s3)[C@H](C#N)C[C@H]2O)CCC1` (stereo partly drawn) [Compound XVI], for which the “intraocular pressure (IOP)” value in the experiment on normotensive dogs is “decreases from baseline”. Further, in experiment [1], the IOP entry is “decreases from baseline”.
Consider `N#C[C@@H]1C[C@@H](O)[C@H](CCCC(O)C2(c3cccs3)CCC2)[C@H]1CCCCCCC(=O)OCCN1CCOCC1` (stereo partly drawn) [Compound XV], for which, in the experiment with normotensive dogs, the “intraocular pressure (IOP)” value is recorded as “decreases from baseline”. The IOP entry in experiment [1] is “decreases from baseline”.
For `N#C[C@@H]1C[C@@H](O)[C@H](/C=C/CC(O)C2(c3cccs3)CCC2)[C@H]1C/C=C\CCCC(=O)OCCN1CCOCC1` (stereo partly drawn) [Compound X], the “intraocular pressure (IOP)” value with normotensive dogs was “decreases from baseline”. For the same compound, in experiment [1], the IOP entry is given as “decreases from baseline”.
As for `CCNC(=O)CCC/C=C\C[C@@H]1[C@@H](/C=C/[C@@H](O)CCc2ccccc2)[C@H](O)C[C@@H]1O` [bimatoprost], the “lash appearance, treated eye versus non-treated eye” value in experiment [2] was “longer, thicker, and fuller in the treated eye than in the non-treated eye”.

The values above are taken from US7960378B2, “Therapeutic compounds” (Allergan, Inc., priority 2008, dated 2011).
